“Also recorded” adds a separate entry of the source.

Experiment [1] addresses [^3 H]Serotonin binding sites of brain tissue. As to the kind of experiment: Inhibition of [3H]serotonin binding by brain homogenates. Conditions: concentration causing 50% inhibition of isotope binding. Here is the method: TABLE 1 illustrates the general inhibitory effects of beta carbolines on neurotransmitter binding by brain tissue. Samples of brain tissue rich in the respective neurotransmitter binding sites were obtained, homogenized, washed and incubated with a series of beta carboline concentrations. After subsequent additions of tritiated neurotransmitters, the extent of beta carboline inhibition of labeled neurotransmitter binding was measured. As shown, a variety of beta carbolines were effective antagonists of several neurotransmitters. […] These beta carbolines may be used as vital stains for the respective neurotransmitter systems, accumulating in living tissue.

Experiment [2] has as its target [^3 H]Choline binding sites of brain tissue. The experiment is described as follows: Inhibition of [3H]choline binding by brain homogenates. Conditions: concentration causing 50% inhibition of isotope binding. As for the experimental part:
(§1) Samples of brain tissue rich in the respective neurotransmitter binding sites were obtained, homogenized, washed and incubated with a series of beta carboline concentrations. After subsequent additions of tritiated neurotransmitters, the extent of beta carboline inhibition of labeled neurotransmitter binding was measured.

For experiment [3], the target named is [^3 H]GABA binding sites of brain tissue. As to the kind of experiment: Inhibition of [3H]GABA binding by brain homogenates. As to conditions: concentration causing 50% inhibition of isotope binding. As for the experimental part:
as §1

For experiment [4], the target named is [^3 h]Noradrenaline binding sites of brain tissue. As to the kind of experiment: Inhibition of [3H]noradrenaline binding by brain homogenates. As to conditions: concentration causing 50% inhibition of isotope binding. As for the experimental part:
as §1

The target of experiment [5] is [^14 C]Dopamine binding sites of brain tissue. The experiment is described as follows: Inhibition of [14C]dopamine binding by brain homogenates. Conditions: read-out: IC50, inhibition binding, concentration causing 50% inhibition of isotope binding. As for the experimental part: TABLE 1 illustrates the general inhibitory effects of beta carbolines on neurotransmitter binding by brain tissue. Samples of brain tissue rich in the respective neurotransmitter binding sites were obtained, homogenized, washed and incubated with a series of beta carboline concentrations. […] As shown, a variety of beta carbolines were effective antagonists of several neurotransmitters. […] These beta carbolines may be used as vital stains for the respective neurotransmitter systems, accumulating in living tissue.

In experiment [6] the test system is noradrenergic system of blood cells and platelets. As to the kind of experiment: THN accumulation in blood cells and platelets, noradrenaline system. It counts as cell-based. As to conditions: imipramine 100 μM and serotonin 100 μM pretreatment; extrapolated from literature. Here is the method: The analysis of a noradrenaline system using the beta carboline tetrahydronorharman (THN) could be tested using the method described with blood cells and platelets. Cells and platelets would be collected, then pre-treated with solutions to block sites of the serotonin system in order to limit interactions to that of the noradrenergic system. Cells would be first incubated for 10 minutes with the serotonin uptake blocker, imipramine at 100 μM, following which serotonin itself was added to make a concentration of 100 μM for an additional 5 minute incubation. The cells and platelets thusly prepared would then be incubated with the beta carboline, THN, at concentrations of 10 nM to 100 μM. […] These values were obtained via extrapolation from pertinent literature on THN and noradrenaline.

The test system of experiment [7] is lymphocytes and platelets. The experiment is described as follows: Harmaline accumulation in blood cells by ultraviolet flow cytometry. The format is cell-based, human. Here is the method: (§2) For this experiment, the beta carboline, harmaline was used. […] Prior to the use of a beta carboline to analyze blood tissues, blood was collected, then leukocytes and platelets were gradient separated utilizing a hypaque/centrifugation technique. The leukocytes were then re-suspended in culture media (phosphate buffered saline (PBS) with bovine serum albumin) at a concentration of […]. The cells and platelets may then be incubated with a solution containing antagonist(s) or blockers of undesired neurotransmitter interactions. With harmaline, there is some amount of cross reactivity with the alpha-2 (noradrenaline) receptor. As the blood cells and platelets both have alpha-2 receptors, the noradrenaline antagonist, yohimbine was chosen to block undesired reactivity with these sites. Cells were incubated for 10 minutes with a 100 μM solution of yohimbine. The cells were then divided into numerous samples which were each exposed to increasing concentrations of harmaline (1 μM to 100 μM concentrations were used) for a period of five minutes each. […] The labelled cells were then analyzed using both spectrophotofluorometry and ultraviolet flow cytometry. With the flow cytometry-analyzed tissue an experiment to detect the presence of imipramine, the serotonin uptake system antagonist, was implemented.
With flow cytometry, a sample of cells was treated prior to analysis, as above. Fluorescence of individual cells was then analyzed sequentially as they passed through detection beams of light in a micro-stream of fluid. Using this method, literally emissions of cells, or "events" were analyzed and statistically computed to elicit accuracy of analysis. In addition, as individual cells are analyzed, more subtle changes in fluorescence ligand-cell association can be appreciated. There are some procedures for measuring the actual number of binding sites on cells which combine flow cytometry with steady-state fluorescence (Steinkamp and Kramer 1979) or radiometric assays (Titus et al. 1981), while others employ fluorescent calibration standards (Sklar et al. 1984). […]

In experiment [8] the test system is ^3 H-serotonin uptake by retina. As to the kind of experiment: Inhibition of 3H-serotonin uptake in retina (FIG. 5). It counts as cell-based.
Experiment [9] concerns leukocytes and platelets. The experiment is described as follows: Harmaline accumulation in blood cells by spectrophotofluorometry. It counts as cell-based, human. As for the experimental part:
as §2, with “receptor.” for “receptor. As the blood cells and platelets both have alpha-2 receptors, the noradrenaline antagonist, yohimbine was chosen to block undesired reactivity with these sites. Cells were incubated for 10 minutes with a 100 μM solution of yohimbine. The cells were then divided into numerous samples which were each exposed to increasing concentrations of harmaline (1 μM to 100 μM concentrations were used) for a period of five minutes each.”
In spectrophotofluorometry (SPF), a volume of labeled cells in suspension are analyzed together, the sum of their emitted fluorescence recorded using a spectrophotofluorometer and compared with other samples with the same concentration of cells. […] This method assumes that the fluorescence emitted from a sum of collected sources (cells) increases proportionally with an individual source. […]

Experiment [10] deals with rat retina. As to the kind of experiment: Fluorescent harmaline accumulation in perfused living retina. It counts as cell-based. Here is the method:
One test of the serotonin site ligand, harmaline, is in the neuronal tissue of the rat retina. This tissue is known to contain intracellular serotonin. The serotonergic neurotransmitter system in rat retinal neurons has been previously studied and sites of serotonin accumulation have been identified (Redburn and Churchill 1987) primarily using radiolabelled ^3 H-serotonin (see FIG. 2). According to one test of the invention, it was determined that harmaline accumulated in living rat retina tissue in a specific manner. […] The harmaline present in the OPL begins to dissipate when the stained retina is exposed to sodium-free buffer (see FIG. 3, frame B). Exposure of the stained retina to darkness stimulates harmaline release from the OPL (see FIG. 3, frame C). Further, quantitative evaluation of harmaline accumulation was achieved by measuring the amount of fluorescence given off by harmaline when excited with UV-radiation. A light meter was used to generate data. The light meter gathered light emissions from the eyepiece of an ultraviolet microscope. Harmaline's excitation spectrum is 350-390 nm with emission spectra greatest at 480 and 560 nm in the visible range producing a blue green light. Tissue was placed under a microscope in a sealed perfusion chamber through which oxygenated (95% O2 -5% CO2) buffer flowed. Upon administration of harmaline, data from the light meter was standardized to units of harmaline concentration (using standard curves).

For experiment [11], the system named is opiate sites. Conditions: Muller et al. 1981; cited from earlier work.
Experiment [12] relates to muscarinic cholinergic sites. Conditions: Muller et al. 1981; cited from earlier work.
In experiment [13] the test system is benzodiazepine receptor. As to conditions: Muller et al. 1981; cited from earlier work.
Experiment [14] relates to monoamine oxidase A. Conditions: Fuller et al. 1985; cited from earlier work.
The subject of experiment [15] is serotonin receptors. Conditions: Glennon 1981; cited from earlier work.
Where [16] appears, read: perfusion concentration 5 μM harmaline.

In the case of `c1ccc2c3c([nH]c2c1)CNCC3` [1,2,3,4-tetrahydro-beta-carboline], the IC50 was found to be 6 µM in [1]; 9000 µM in experiment [2]; 153 µM in experiment [3]; 13 µM in experiment [4]; 220 µM in [5]. Also, in experiment [6], the “THN concentration at which fluorescent accumulation saturates” value is “approximately 10 μM”.

Turning to `CN(C)CCCN1c2ccccc2CCc2ccccc21` [imipramine], the “Effect on measured harmaline accumulation” value in experiment [7] (brief incubation with imipramine 25 μM) is listed as “the measured harmaline accumulation was less”. Besides, the “Inhibition of ^3 H-serotonin uptake by retina” value in [8] is on record as “antagonized”.

`COc1ccc2c(c1)[nH]c1c(C)nccc12` [7-methoxy-1-methyl-beta-carboline]: the IC50 amounted to 27 µM in experiment [1], 200 µM in experiment [2] and 700 µM in experiment [4].

For the compound `c1ccc2c(c1)[nH]c1cnccc12` [beta-carboline], the IC50 in [1] worked out at 9.1 µM; in [2], 75 µM; in experiment [3], 335 µM; in experiment [4], 80 µM; in experiment [5], 100 µM.

The term EC50 denotes the concentration needed to bring the measured effect to its halfway point. Take “7-methoxy-3,4-dihydro-beta-carboline [harmaline]”: the IC50 came out at 43 µM in experiment [1], 238 µM in [3] and 43 µM in experiment [4]. Moreover, the “Nature of accumulation in human lymphocytes” value in [9] (fluorescence measurement) is “saturable, concentration-dependant phenomena”. The EC50 in experiment [9] (yohimbine 100 μM pretreatment, harmaline 1-100 μM, 5 minutes, read-out: EC50 of fluorescent accumulation (spectrophotofluorometry)) came to 30 µM; in experiment [7] (yohimbine 100 μM pretreatment, harmaline 1-100 μM, 5 minutes, read-out: EC50 of fluorescent accumulation (flow cytometry)) it was 25 µM. The “Concentration at which accumulation saturates” value in [7] (at 5 minutes) is 75 to 100 µM. The “Accumulation inside versus outside the cell” value in [10] is reported as “three times greater inside than outside the cell”. Moreover, the “Dependence of accumulation in retina” value in experiment [10] is on record as “sodium dependent, energy dependent”. Besides, the “Harmaline concentration in outer retina relative to control (non-viable) tissue” value in experiment [10] (setting [16]) is listed as 3 fold. In [10] (setting [16]), the “Harmaline concentration in outer retina relative to surrounding perfusate” value turned out to be 3 fold. The “Inhibition of ^3 H-serotonin uptake by retina” value in experiment [8] is reported as “competitively inhibited”. Besides, the “IC50 for opiate sites relative to other sites” value in experiment [11] was “about four times lower than for serotonin or dopamine sites; also recorded: about four times higher than found for benzodiazepine antagonism”. In addition, in [12], the “IC50 for muscarinic cholinergic sites relative to other sites” value was “about four times lower than for serotonin or dopamine sites; also recorded: about four times higher than found for benzodiazepine antagonism”. Also, the “Potency at benzodiazepine binding relative to serotonin or dopamine” value in [13] is given as “far more potent antagonist of benzodiazepine binding than it is for serotonin or dopamine”. Moreover, the “Inhibition of monoamine oxidase A in vivo” value in experiment [14] was “potently inhibit”. Moreover, in experiment [15], the “Binding affinity for serotonin receptors” value is given as “high binding affinities”.

Source of the values: patent publication US5256533A, “As a probe of serotonin uptake harmaline” (Board of Regents, The University of Texas System, priority 1990, dated 1993).
